Counter-ions that a name gives are not always drawn.
system: Acinetobacter baumannii ATCC17961; assay: Antimicrobial susceptibility testing: 90% growth inhibitory concentration (IC90) determination in Iso-Sensitest broth, OD600 growth; format: cell-based; conditions: Acinetobacter baumannii, ATCC17961, 16 h, read-out: A. baumannii ATCC 17961 IC90 (uM), strain ATCC 17961, OD600 growth over 16 h
Protocol: Antimicrobial Susceptibility Testing:
90% Growth Inhibitory Concentration (IC90) Determination
The in vitro antimicrobial activity of the compounds was determined according to the following procedure:
The assay used a 10-points Iso-Sensitest broth medium to measure quantitatively the in vitro activity of the compounds against Acinetobacter baumannii ATCC17961 or ATCC17968.
Stock compounds in DMSO were serially twofold diluted (e.g. range from 50 to 0.097 μM final concentration) in 384 wells microtiter plates and inoculated with 49 μl the bacterial suspension in Iso-Sensitest medium to have a final cell concentration of ˜5×10^(5) CFU/ml in a final volume/well of 50 ul/well. Microtiter plates were incubated at 35±2° C.
Bacterial cell growth was determined with the measurement of optical density at λ=600 nm each 20 minutes over a time course of 16 h. Growth inhibition was calculated during the logarithmic growth of the bacterial cells with determination of the concentration inhibiting 50% (IC50) and 90% (IC90) of the growth.
Table 7 provides the 90% growth inhibitory concentrations (IC90) in micromoles per liter of the compounds of present invention obtained against the strain Acinetobacter baumannii ATCC17961 and/or ATCC17968.

Compound	IC90 [µM]
N#CCn1cc(-c2cnc3c(Nc4ccc(C(=O)N5CCN(C(=O)[C@H]6C[C@H](N)C6)CC5)c(Cl)c4)nccn23)c(C(F)(F)F)n1 [Example 12, 2-[4-[8-[4-[4-(3-aminocyclobutanecarbonyl)piperazine-1-carbonyl]-3-chloroanilino]imidazo[1,2-a]pyrazin-3-yl]-3-(trifluoromethyl)pyrazol-1-yl]acetonitrile formate]	0.176
CNCC1(O)CCN(C(=O)c2ccc(Nc3nccn4c(-c5cn(CC#N)nc5C(F)(F)F)cnc34)cc2Cl)CC1 [Example 14, 2-[4-[8-[3-chloro-4-[4-hydroxy-4-(methylaminomethyl)piperidine-1-carbonyl]anilino]imidazo[1,2-a]pyrazin-3-yl]-3-(trifluoromethyl)pyrazol-1-yl]acetonitrile formate]	0.141
CCc1cc(Nc2nccn3c(-c4cn(CCC(C)C)nc4C(F)(F)F)cnc23)ccc1C(=O)NCCOCCN [Example 28, N-[2-(2-aminoethoxy)ethyl]-2-ethyl-4-[[3-[1-(3-methylbutyl)-3-(trifluoromethyl)pyrazol-4-yl]imidazo[1,2-a]pyrazin-8-yl]amino]benzamide formate]	0.369
CCc1cc(Nc2nccn3c(-c4cn(CC#N)nc4C(F)(F)F)cnc23)ccc1C(=O)NCCOCCN [Example 29, N-[2-(2-aminoethoxy)ethyl]-4-[[3-[1-(cyanomethyl)-3-(trifluoromethyl)pyrazol-4-yl]imidazo[1,2-a]pyrazin-8-yl]amino]-2-ethylbenzamide formate]	0.107
CCc1cc(Nc2nccn3c(-c4cn(CC)nc4C(F)(F)F)cnc23)ccc1C(=O)NCCOCCN [Example 31, N-[2-(2-aminoethoxy)ethyl]-2-ethyl-4-[[3-[1-ethyl-3-(trifluoromethyl)pyrazol-4-yl]imidazo[1,2-a]pyrazin-8-yl]amino]benzamide formate]	0.175
CCc1cc(Nc2nccn3c(-c4cn(CCC#N)nc4C(F)(F)F)cnc23)ccc1C(=O)NCCOCCN [Example 33, N-[2-(2-aminoethoxy)ethyl]-4-[[3-[1-(2-cyanoethyl)-3-(trifluoromethyl)pyrazol-4-yl]imidazo[1,2-a]pyrazin-8-yl]amino]-2-ethylbenzamide formate]	0.269
CCc1cc(Nc2nccn3c(-c4cn(CCOC)nc4C(F)(F)F)cnc23)ccc1C(=O)NCCOCCN [Example 34, N-[2-(2-aminoethoxy)ethyl]-2-ethyl-4-[[3-[1-(2-methoxyethyl)-3-(trifluoromethyl)pyrazol-4-yl]imidazo[1,2-a]pyrazin-8-yl]amino]benzamide formate]	0.367

same assay, conditions: Acinetobacter baumannii, ATCC17961, 16 h, strain ATCC 17961, OD600 growth over 16 h, read-out: A. baumannii ATCC 17961 IC90

IC90 [µM]	Compound
0.166	CCc1cc(Nc2nccn3c(-c4c[nH]nc4C(F)(F)F)cnc23)ccc1C(=O)NCCCNC(=O)[C@@H](N)CNC(=N)N [Example 13, N-[3-[[(2S)-2-amino-3-carbamimidamidopropanoyl]amino]propyl]-2-ethyl-4-[[3-[3-(trifluoromethyl)-1H-pyrazol-4-yl]imidazo[1,2-a]pyrazin-8-yl]amino]benzamide formate]
0.251	CCc1cc(Nc2nccn3c(-c4cn(Cc5cc[nH]n5)nc4C(F)(F)F)cnc23)ccc1C(=O)NC [Example 15, 2-ethyl-N-methyl-4-[[3-[1-(1H-pyrazol-3-ylmethyl)-3-(trifluoromethyl)pyrazol-4-yl]imidazo[1,2-a]pyrazin-8-yl]amino]benzamide]
0.069	C#CCn1cc(-c2cnc3c(Nc4ccc(C(=O)NCCOCCN)c(C)c4)nccn23)c(C(F)(F)F)n1 [Example 16, N-[2-(2-aminoethoxy)ethyl]-2-methyl-4-[[3-[1-prop-2-ynyl-3-(trifluoromethyl)pyrazol-4-yl]imidazo[1,2-a]pyrazin-8-yl]amino]benzamide]
0.26	CCc1cc(Nc2nccn3c(-c4cn(CC#N)nc4C(F)F)cnc23)ccc1C(=O)NCCOCCN [Example 18, N-[2-(2-aminoethoxy)ethyl]-4-[[3-[1-(cyanomethyl)-3-(difluoromethyl)pyrazol-4-yl]imidazo[1,2-a]pyrazin-8-yl]amino]-2-ethylbenzamide]
0.141	CCCn1cc(-c2cnc3c(Nc4ccc(C(=O)NCCOCCN)c(CC)c4)nccn23)c(C(F)(F)F)n1 [Example 25, N-[2-(2-aminoethoxy)ethyl]-2-ethyl-4-[[3-[1-propyl-3-(trifluoromethyl)pyrazol-4-yl]imidazo[1,2-a]pyrazin-8-yl]amino]benzamide hydrochloride]
0.282	CCc1cc(Nc2nccn3c(-c4cn(C5CCCC5)nc4C(F)(F)F)cnc23)ccc1C(=O)NCCOCCN [Example 26, N-[2-(2-aminoethoxy)ethyl]-4-[[3-[1-cyclopentyl-3-(trifluoromethyl)pyrazol-4-yl]imidazo[1,2-a]pyrazin-8-yl]amino]-2-ethylbenzamide hydrochloride]
0.306	CCc1cc(Nc2nccn3c(-c4cn(C(C)C)nc4C(F)(F)F)cnc23)ccc1C(=O)NCCOCCN [Example 27, N-[2-(2-aminoethoxy)ethyl]-2-ethyl-4-[[3-[1-propan-2-yl-3-(trifluoromethyl)pyrazol-4-yl]imidazo[1,2-a]pyrazin-8-yl]amino]benzamide hydrochloride]
0.185	CCc1cc(Nc2nccn3c(-c4cn(CC(F)F)nc4C(F)(F)F)cnc23)ccc1C(=O)NCCNC(=O)[C@@H]1CCCN1 [Example 35, (2S)-N-[2-[[4-[[3-[1-(2,2-difluoroethyl)-3-(trifluoromethyl)pyrazol-4-yl]imidazo[1,2-a]pyrazin-8-yl]amino]-2-ethylbenzoyl)amino]ethyl]pyrrolidine-2-carboxamide]
0.348	CCc1cc(Nc2nccn3c(-c4cn(C(F)F)nc4C(F)(F)F)cnc23)ccc1C(=O)NCCNC(=O)[C@@H]1CCCN1 [Example 36, (2S)-N-[2-[[4-[[3-[1-(difluoromethyl)-3-(trifluoromethyl)pyrazol-4-yl]imidazo[1,2-a]pyrazin-8-yl]amino]-2-ethylbenzoyl)amino]ethyl] pyrrolidine-2-carboxamide]
0.47	CCc1cc(Nc2nccn3c(-c4c[nH]nc4C(F)(F)F)cnc23)ccc1C(=O)NCCNC(=O)[C@@H]1CCCN1 [Example 39, (2S)-N-[2-[[2-ethyl-4-[[3-[3-(trifluoromethyl)-1H-pyrazol-4-yl]imidazo[1,2-a]pyrazin-8-yl]amino]benzoyl]amino]ethyl] pyrrolidine-2-carboxamide]
0.254	C#CCNC(=O)c1c(C)cc(Nc2nccn3c(-c4cn(CC=C)nc4C(F)(F)F)cnc23)cc1F [Example 41, 2-fluoro-6-methyl-4-[[3-[1-prop-2-enyl-3-(trifluoromethyl)pyrazol-4-yl]imidazo[1,2-a]pyrazin-8-yl]amino]-N-prop-2-ynylbenzamide]
0.354	C#CCNC(=O)c1c(C)cc(Nc2nccn3c(-c4cn(CCF)nc4C(F)(F)F)cnc23)cc1F [Example 42, 2-fluoro-4-[[3-[1-(2-fluoroethyl)-3-(trifluoromethyl)pyrazol-4-yl]imidazo[1,2-a]pyrazin-8-yl]amino]-6-methyl-N-prop-2-ynylbenzamide]

Continued, molecule first:

Compound	IC90 [µM]
C#CCNC(=O)c1c(C)cc(Nc2nccn3c(-c4cn(CC(F)F)nc4C(F)(F)F)cnc23)cc1F [Example 37, 4-[[3-[1-(2,2-difluoroethyl)-3-(trifluoromethyl)pyrazol-4-yl]imidazo[1,2-a]pyrazin-8-yl]amino]-2-fluoro-6-methyl-N-prop-2-ynylbenzamide]	0.239
C#CCNC(=O)c1c(C)cc(Nc2nccn3c(-c4cn(Cc5nc(CC6CC6)no5)nc4C(F)(F)F)cnc23)cc1F [Example 38, 4-[[3-[1-[[3-(cyclopropylmethyl)-1,2,4-oxadiazol-5-yl]methyl]-3-(trifluoromethyl)pyrazol-4-yl]imidazo[1,2-a]pyrazin-8-yl]amino]-2-fluoro-6-methyl-N-prop-2-ynylbenzamide]	0.327

same assay, conditions: strain ATCC 17961, OD600 growth over 16 h, read-out: A. baumannii ATCC 17961 IC90

IC90 [µM]	Compound
0.523	CCc1cc(Nc2nccn3c(-c4c(C(F)(F)F)n[nH]c4C)cnc23)ccc1C(=O)NCCOCCN [Example 24, N-[2-(2-aminoethoxy)ethyl]-2-ethyl-4-[[3-[5-methyl-3-(trifluoromethyl)-1H-pyrazol-4-yl]imidazo[1,2-a]pyrazin-8-yl]amino] benzamide formate]
0.159	CCc1cc(Nc2nccn3c(-c4cn(CC5CC5)nc4C(F)(F)F)cnc23)ccc1C(=O)NCCOCCN [Example 30, N-[2-(2-aminoethoxy)ethyl]-4-[[3-[1-(cyclopropylmethyl)-3-(trifluoromethyl)pyrazol-4-yl]imidazo[1,2-a]pyrazin-8-yl]amino]-2-ethylbenzmamide formate]
0.196	C#CCNC(=O)c1c(C)cc(Nc2nccn3c(-c4cn(CC#C)nc4C(F)(F)F)cnc23)cc1F [Example 40, 2-fluoro-6-methyl-N-prop-2-ynyl-4-[[3-[1-prop-2-ynyl-3-(trifluoromethyl)pyrazol-4-yl]imidazo[1,2-a]pyrazin-8-yl]amino] benzamide]

Compound	IC90 [µM]
CCc1cc(Nc2nccn3c(-c4cn(CCC(F)(F)F)nc4C(F)(F)F)cnc23)ccc1C(=O)NCCOCCN [Example 32, N-[2-(2-aminoethoxy)ethyl]-2-ethyl-4-[[3-[3-(trifluoromethyl)-1-(3,3,3-(trifluoropropyl)pyrazol-4-yl]imidazo[1,2-a]pyrazin-8-yl]amino]benzamide formate]	0.19
